Measurements reported in publication PMC5063576, “High Potency VEGFRs/MET/FMS Triple Blockade by TAS-115 Concomitantly Suppresses Tumor Progression and Bone Destruction in Tumor-Induced Bone Disease Model with Lung Carcinoma Cells” (PLoS ONE, 2016).
pIC50: −log10 of the molar value.

Target: T1, Recombinant human FMS dephosphorylated with lambda phosphatase (dephospho-rhFMS) (Homo sapiens, UniProt P07333)
T1 sequence (P07333 538-972): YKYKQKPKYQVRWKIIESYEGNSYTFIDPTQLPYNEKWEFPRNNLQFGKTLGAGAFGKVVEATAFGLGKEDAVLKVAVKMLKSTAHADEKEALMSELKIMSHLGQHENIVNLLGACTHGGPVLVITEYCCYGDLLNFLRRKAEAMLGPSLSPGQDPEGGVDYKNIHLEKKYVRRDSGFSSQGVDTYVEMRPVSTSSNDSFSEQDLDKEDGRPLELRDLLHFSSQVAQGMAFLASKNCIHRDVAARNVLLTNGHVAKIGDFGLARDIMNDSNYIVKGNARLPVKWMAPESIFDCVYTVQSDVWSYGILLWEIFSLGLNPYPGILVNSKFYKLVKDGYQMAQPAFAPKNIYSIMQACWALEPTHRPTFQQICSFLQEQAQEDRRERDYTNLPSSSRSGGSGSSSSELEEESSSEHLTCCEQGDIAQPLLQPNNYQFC
Assay: In vitro kinase assay, recombinant dephospho-FMS (LANCE Ultra TR-FRET)
Assay type: biochemical
Settings: 100 μM ATP
Procedure: Enzyme inhibition studies were performed using LANCE® Ultra TR-FRET assay technology. Briefly, 0.03 μg/mL dephospho-rhFMS and 100 nM ULightTM-poly GT (4:1) (PerkinElmer) were mixed and incubated for 40 min at 25°C in 10 μL of reaction mixture containing 100 μM ATP, 15 mM tris (hydroxymethyl) aminomethane (Tris (pH 7.5)), 0.01% (v/v) Tween 20, 5 mM MgCl2, 2 mM dithiothreitol and various concentrations of the test compound. […] By referring to the TR-FRET signals of positive (no inhibitor) and negative (EDTA was added before the reaction was started) control wells, the percent inhibition of each well was calculated and the half-maximal inhibitory concentration (IC50) value was determined using a four-parameter sigmoidal equation. The assay of MET and VEGFR2 kinase activity was performed as described previously.

pIC50: 7.82
Compound: CNC(=O)c1cc2c(Oc3ccc(NC(=S)NC(=O)Cc4ccccc4)cc3F)ccnc2cc1OC [TAS-115, 4-[2-fluoro-4-[[[(2-phenylacetyl)amino]thioxomethyl]amino]-phenoxy] -7-methoxy-N-methyl-6-quinolinecarboxamide]
